One block for each compound: values may come before it.
Legend:
EOL-1 cells = test: Cell viability/proliferation (cellular ATP, CellTiterGlo) in EOL-1; format: cell-based; conditions: Homo sapiens, EOL1; EOL-1, text; read-out: EC50 (cytotoxicity, cell viability)
A-204 cells = test: Cell viability/proliferation (cellular ATP, CellTiterGlo) in A-204; format: cell-based; conditions: Homo sapiens, A204; A-204 (printed A-402); read-out: EC50 (cytotoxicity, cell viability)
Procedure: (§1) A-204 cells (1 × 10^3) were seeded per well of 384-well plates. After overnight incubation, compounds were added to the cells at logarithmic dose series using the HP digital dispenser D300 (Tecan), normalizing for added DMSO. 1 day and 8 days after seeding cellular ATP content was measured using CellTiterGlo (Promega). Measurements after 8 days were divided by the measurement after 1 day (i.e., the T0 plate) to derive fold proliferation. Data were analyzed with GraphPad Prism software to obtain EC50 values.

EOL-1 and A-204 cells = test: Cell viability/proliferation, ranges stated over EOL-1 and A-204; format: cell-based; conditions: Homo sapiens; EOL-1 and A-204, text; read-out: EC50 (cell viability), range
Procedure: as §1

[1] = CHI LogD determination (reverse-phase HPLC); format: physicochemical; conditions: reversed-phase HPLC (ACE Excel 3 SuperC18 column), pH 7.4; read-out: CHI LogD (pH7.4)
Procedure: (§2) removed from both acceptor and donor compartments and mixed with acetonitrile (80 µL) containing an internal standard. The samples were centrifuged (10 min, 5 °C, 3270 g) to sediment precipitated protein and sealed prior to UPLC-MS/MS analysis using a Xevo TQ-S Micro (Waters Corp, USA). Pe was calculated as shown in the below equation: […]
(§3) CA(t) = peak area of compound present in acceptor well at time t = 18000 s Cequi = [CD(t) x VD + CA(t) x VA] / (VD + VA)
(§4) VA = acceptor well volume
(§5) CD(t) = peak area of compound present in donor well at time t = 18000 s Recovery of compound from donor and acceptor wells was calculated and data was only accepted when recovery exceeded 70%.
Using a fast gradient, reverse-phase HPLC method to determine the chromatographic hydrophobicity index (CHI) was determined as described by Camurri and Zaramella (ref. 3) and Valko et al. (ref. 4). Briefly, by plotting the retention time of a set of reference […]
compounds against known CHI values. The CHI value of test compounds was then calculated according to their retention time.
Test compounds were prepared as 0.25 mM solutions in 50:50 acetonitrile:water and analysed by reversed-phase HPLC-UV (wavelength 254 nm) using a ACE Excel 3 SuperC18, 3 µm, 50 x 2.1 mm column with a gradient of aqueous phase (10 mM ammonium acetate, pH 7.4) and mobile phase (acetonitrile).
Intrinsic clearance (Cli) experiments
Test compound (0.5 µM) was incubated with female CD1 mouse or human (mixed gender) liver microsomes (Xenotech LLCTM; 0.5 mg/mL 50mM potassium phosphate buffer, pH7.4) and the reaction initiated with addition of excess NADPH (8 mg/mL 50 mM potassium phosphate buffer, pH7.4). Immediately, at time zero, then at 3, 6, 9, 15 and 30 minutes an aliquot (50 µL) of the incubation mixture was removed and mixed with acetonitrile (100 µL) to stop the reaction. Internal standard was added to all samples, the samples centrifuged to sediment precipitated protein and the plates then sealed prior to […] analysis using […]
a Xevo TQ-S Micro (Waters corporation, USA).
XLfit (IDBS, UK) was used to calculate the exponential decay and consequently the rate constant (k) from the ratio of peak area of test compound to internal standard at each timepoint. The rate of intrinsic clearance (CLi) of each test compound was then calculated using the following calculation:
CLi(mL/min/g liver) = k x V x Microsomal protein yield
Where V (mL/mg protein) is the incubation volume/mg protein added and microsomal protein yield is taken as 52.5 mg protein/ g liver. Verapamil (0.5 µM) was used as a positive control to confirm acceptable assay performance.

[2] = Parallel Artificial Membrane Permeability Assay (PAMPA); format: in vitro ADME
Procedure: Test compound (10 µM) was incubated in pre-warmed plasma at 37 ᵒC (that is buffered to pH 7.4 in ratio of 70:30 plasma to buffer). Immediately, at time zero, then at 30, 60, 120, and 180 min, a 50 µL aliquot of the incubation mixture was removed and mixed with 200 µL acetonitrile containing Donepezil as the internal standard (50 ng/ml) to stop the reaction. The samples were centrifuged to sediment the precipitated protein and the plates then sealed prior to UPLC-MS/MS analysis using a Xevo TQ-S Micro (Waters Corporation, USA).
XLfit (IDBS, UK) was used to calculate the exponential decay and consequently the rate constant (k) from the ratio of peak area of test compound to internal standard at each time point. The half-life was calculated for each test compound from the rate by using the […]
Parallel Artificial Membrane Permeability Assay (PAMPA)
PAMPA was performed using a 96-well pre-coated BD Gentest™ PAMPA plate (BD Biosciences, U.K.). Each well was divided into two chambers; donor and acceptor, separated by a lipid-oil-lipid tri-layer constructed in a porous filter. The effective permeability, Pe, of the compound was measured at pH 7.4. Stock solutions (5 mM) of the compound were prepared in DMSO. The compound was then further diluted to 10 µM in phosphate buffered […]
saline at pH 7.4. […] The compound […]
dissolved in phosphate buffered saline was then added to the donor side of the membrane and phosphate buffered saline without compound was added to the acceptor side. The PAMPA plate was left at room temperature for 5 h. After which time, an aliquot (100 µL) was then […]
as §2, §3, §4, §5
Using a fast gradient, reverse-phase HPLC method to determine the chromatographic hydrophobicity index (CHI) was determined as described by Camurri and Zaramella (ref. 3) and Valko et al. (ref. 4). Briefly, by plotting the retention time of a set of reference

SMILES: COc1cc(-c2cn(C)c(=O)c3cnccc23)cc(OC)c1CN(C)CC(=O)NCCOCCOCCNc1cccc2c1C(=O)N(C1CCC(=O)NC1=O)C2=O (centres unmarked) [Compound 21, reference compound]
- EC50 (EOL-1 cells): 5 nM
- EC50 (A-204 cells): 90 nM

SMILES: COc1cc(-c2cn(C)c(=O)c3cnccc23)cc(OC)c1CN(C)C [Compound 1a]
- EC50 (EOL-1 and A-204 cells): 90 to 340 nM

SMILES: COc1cc(-c2cn(C)c(=O)c3cnccc23)c(OC)cc1CN(C)C [Compound 1b]
- EC50 (EOL-1 and A-204 cells): 370 to 3550 nM

- chromatographic logD [1]: 2
- recovery at 5 h, 10 µM ([2]; PAMPA, pH 7.4): 88%
- Papp at 5 h, 10 µM ([2]; PAMPA, pH 7.4, 5 h, read-out: PAMPA pH 7.4 Pe): 0.002 ×10⁻⁶ cm/s
- PAMPA pH 7.4 HIGH/MED/LOW ([2]; pH 7.4, permeability class): LOW and low cell permeability
SMILES: COc1cc(-c2cn(C)c(=O)c3cnccc23)cc(OC)c1CN1CCN(CCOCCOc2cc(-c3scnc3C)ccc2CNC(=O)[C@@H]2C[C@@H](O)CN2C(=O)[C@@H](NC(=O)C2(F)CC2)C(C)(C)C)CC1 [Compound 46, (2S,4R)-N-(2-(2-(2-(4-(2,6-Dimethoxy-4-(2-methyl-1-oxo-1,2-dihydro-2,7-naphthyridin-4-yl)benzyl)piperazin-1-yl)ethoxy)ethoxy)-4-(4-methylthiazol-5-yl)benzyl)-1-((S)-2-(1-fluorocyclopropane-1-carboxamido)-3,3-dimethylbutanoyl)-4-hydroxypyrrolidine-2-carboxamide]

Reference: article PMC6348446 (Journal of Medicinal Chemistry, 2018)
